Common to all, as to assay: NCI anticancer screen, dose series, 48 h
Assay [1] relates to SK-OV-3 ovarian.
Assay [2] relates to HCT-15 colon.
The test system of assay [3] is 786-0 renal.
Assay [4] relates to A549 NSCLC.
The subject of assay [5] is MDA-MB-435.
For assay [6], the system named is OVCAR-5 ovarian.
The subject of assay [7] is SN12C renal.
Assay [8] relates to MDA-MB-231 breast.
The test system of assay [9] is HOP-92 NSCLC.
For assay [10], the system named is HL-60(TB) leukemia.

SMILES strings stand for the structures.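 A five-concentration, 48-hour dose response in 96-well plates underlies each endpoint, interpolated linearly between surrounding concentrations. Here, GI50 denotes the concentration required for 50% inhibition of growth. TGI marks complete inhibition of growth.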 Where only a bound is given, the exact number is not on record here.

Turning to `CCOC(=O)CC1C(CNC(=O)NC)OC(n2cnc3c(NC(=O)Nc4ccccc4)ncnc32)C1O[Si](C)(C)C(C)(C)C` (stereo unspecified), the GI50 in assay [1] was 21 µM; in assay [2] it was 8.5 µM; in [3] it was 2 µM; in [4] it was 4.18 µM; in assay [5], 6.21 µM; in assay [6] it was 31.1 µM. The GI50 in [7] was 9.1 µM; in assay [8], 3.96 µM. The TGI was greater than 100 µM in assay [1]; greater than 100 µM in assay [2]; 5.21 µM in [3]; 19.2 µM in [4]; greater than 100 µM in [5]; greater than 100 µM in assay [6]. Moreover, the figures for the TGI in assay [7] and in assay [8] were greater than 100 µM and 41.3 µM, respectively.
Consider `O=CCC(O)C(O)C(O)CO` (stereo unspecified), for which the GI50 in [1] was greater than 100 µM; in [9], 1.74 µM; in assay [2], greater than 100 µM; in assay [3], greater than 100 µM; in [4], greater than 100 µM; in assay [5] it was greater than 100 µM. The GI50 in [6], in [7] and in assay [8] was greater than 100 µM throughout. Further, the TGI in assay [1], in [9], in assay [2], in [3], in assay [4] and in [5] was greater than 100 µM each time. In addition, the TGI in assay [6], in assay [7] and in assay [8] was greater than 100 µM each time.
`O=C(/C=C/c1cc(O)ccc1O)c1ccc(Cl)cc1`: the GI50 was greater than 100 µM in [9]; 28 µM in [2]; 17.8 µM in assay [3]; 31.8 µM in [4]; 30 µM in assay [5]; 17.4 µM in assay [6]. Besides, the GI50 in assay [7] is 18.1 µM; in assay [8] it was 11.7 µM. Besides, the TGI in assay [9] was greater than 100 µM; in assay [2], greater than 100 µM; in assay [3], 61 µM; in [4], greater than 100 µM; in [5], greater than 100 µM; in [6], 38.7 µM. Moreover, the TGI is 44.7 µM in [7] and 43.5 µM in assay [8].
Regarding `O=C1c2ccccc2-c2c1c1ccc([N+](=O)[O-])cc1c(=O)n2CCN1CCOCC1`, the GI50 in [1] is greater than 100 µM; in [9], 26.2 µM; in assay [2] it was greater than 100 µM; in assay [3], greater than 100 µM; in assay [4], greater than 100 µM; in assay [5], greater than 100 µM. The GI50 is greater than 100 µM in assay [6], 59.3 µM in assay [7] and greater than 100 µM in assay [8]. The TGI in assay [1], in assay [9], in assay [2], in assay [3], in assay [4] and in assay [5] was greater than 100 µM each time. Besides, the TGI in assay [6], in [7] and in [8] was greater than 100 µM in each case.
As for `O=C1Nc2cc(-c3ccc(O)cc3)ccc2/C1=C/c1ccc[nH]1`, the GI50 is 1.14 µM in assay [9]; 0.0451 µM in assay [2]; 0.396 µM in assay [3]; 0.484 µM in [4]; 0.228 µM in assay [10]; 0.0708 µM in assay [5]. Besides, the GI50 in assay [6] is 0.588 µM; in [7], 0.609 µM; in [8], 0.154 µM. Moreover, the TGI in assay [9] is 5.12 µM; in [2] it was greater than 35.3 µM; in [3] it was 4.04 µM; in assay [4], greater than 100 µM; in assay [5], greater than 100 µM; in assay [6] it was greater than 25 µM. Moreover, the TGI in [7] was greater than 100 µM; in assay [8] it was 6.66 µM.
In the case of `CNC(=O)NCCCCC(NC(=O)OCc1ccccc1)C(=O)OCc1ccccc1` (stereo unspecified), the TGI in assay [1] is greater than 100 µM; in assay [9], 89.2 µM; in assay [2], greater than 100 µM; in [3], 32.2 µM; in [4], greater than 100 µM; in assay [10], 32.4 µM. The TGI in [6] was greater than 100 µM; in [7], 51.1 µM.
Turning to `CCSc1nnc(-c2ccc3ccccc3c2O)n1-c1ccccc1`, the GI50 is greater than 100 µM in assay [1]; 5 µM in [9]; 2.72 µM in [2]; greater than 100 µM in [3]; greater than 100 µM in assay [10]; greater than 100 µM in assay [7]. Further, in assay [8], the GI50 is greater than 100 µM. Besides, the TGI in assay [1] is greater than 100 µM; in assay [9], 92.1 µM; in assay [2] it was greater than 100 µM; in assay [3], greater than 100 µM; in assay [10], greater than 100 µM; in [7], greater than 100 µM. In [8], this molecule came in with a TGI greater than 100 µM.
As to `Clc1ccc2c(NCCNc3nc(N4CCCCC4)nc4ccccc34)ccnc2c1`, the GI50 was 2.58 µM in assay [1]; 1.62 µM in [9]; 1.26 µM in [2]; 1.31 µM in assay [3]; 2.16 µM in assay [4]; 1.74 µM in assay [5]. In addition, the GI50 is 2.68 µM in assay [6] and 2.13 µM in assay [7]. Further, the TGI in assay [1] came out at 7.64 µM; in assay [9], 3.24 µM; in assay [2], 3.93 µM; in assay [3], 2.78 µM; in [4], 9.87 µM; in [5], 3.43 µM. Further, the TGI stood at 10.1 µM in [6] and 6.84 µM in assay [7].
In the case of `COc1cc(NC(=O)c2cc3ccccc3cc2O)c(OC)cc1Cl`, the GI50 is 1.39 µM in assay [1]; 1.56 µM in assay [9]; 1.95 µM in assay [2]; 2.86 µM in assay [3]; 2.46 µM in assay [4]; 1.32 µM in assay [10]. Besides, the GI50 was 2.25 µM in [6], 1.87 µM in assay [7] and 1.57 µM in assay [8]. The TGI in assay [1] worked out at 3.94 µM; in assay [9], 4.95 µM; in assay [2], 8.4 µM; in assay [3], 9.18 µM; in assay [4], 7.47 µM; in assay [10], 15.3 µM. Also, the values for the TGI in assay [6], in assay [7] and in assay [8] were 10.6 µM, 6.36 µM and 4.79 µM, respectively.

These data come from PubChem BioAssay (NCI).
